Test results taken from the OPERA property sets (Mansouri et al. 2018).
Where a SMILES comes first, the peptide text is derived from it.

SMILES	logP
CC(=O)NCc1cccc(OCC(O)CNC(C)C)c1 (configuration not stated)	0.34
CC(=O)c1nc([N+](=O)[O-])n(CC(C)O)c1C (configuration not stated)	0.37
NNC(=O)c1ccnc(I)c1	0.52
Cc1cccc(C)c1NC(=O)CN	0.41
O=C(c1ccc(F)cc1F)c1ccc2n1CCC2C(=O)O (configuration not stated)	2.59
Cc1cn([C@H]2CC[C@@H](CO)O2)c(=O)[nH]c1=O	-0.6
CCC1OC(=O)C(C)C(OC2CC(C)(OC)C(OC=O)C(C)O2)C(C)C(OC2OC(C)CC(N(C)C)C2O)C(C)(O)CC(C)C(=O)C(C)C(O)C1C (configuration not stated)	3.05
CC1(C)CC(=O)CC(C)(C)N1O	0.12
NNc1nncc2ccccc12	1
COc1c(OC)c(OC(C)=O)c2cc(NC(C)=O)ccc2c1OC(C)=O	2
COC(=O)C1=C(C)NC(C)=C(C(=O)OCCN(C)Cc2ccccc2)C1c1cccc([N+](=O)[O-])c1 (configuration not stated)	3.82
CC(C)NCC(O)COc1cccc(CC(N)=O)c1 (configuration not stated)	0.22
OCc1cccc2ccccc12	2.37
CCOC(=O)C(CC)(CC)C(=O)NC(N)=O	1.45
CCNc1nc(Cl)nc(NC2CC2)n1	2.17
CCCOc1ccc(CC(=O)O)cc1	2.31
CCCCNC(=O)c1cc(Br)cc(C)c1O	4.21
CCCCc1cc(OC)c(CC(C)N)cc1OC (configuration not stated)	4
Cc1ccc(CCN)cc1	1.83
CN(C)c1nc(N(C)C)nc(N(C)CCO)n1	1.96
Cc1cccc(N=C2NCCN2)c1Cl	1.83
Cc1cccc(C)c1NC(=O)CCCCN	1.02

SMILES	logP
CCn1c(=O)n(C)c(=O)c2[nH]cnc21	0.52
Cc1nc(Cl)c(C#N)cc1-c1ccccc1	3.24
OC(CNCCc1ccncc1)COc1ccc(-c2ncc(-c3cccs3)[nH]2)cc1 (configuration not stated)	2.25
CN(C)c1ccc2ccccc2n1	2.81
O=C(O)Cc1ccc(C2CCCC2)cc1	3.44
CCCCCCCC1CC(C(=O)Nc2c(C(C)C)cccc2C(C)C)C(=O)O1 (configuration not stated)	4.72
CCCN(C(C)=O)C(C)C	1.48
CC(C)NCC(O)c1ccc2ccccc2c1 (configuration not stated)	3
CCCn1c(=O)[nH]c(=O)c2[nH]cnc21	0.33
CCNCc1ccccc1	1.82
CCOc1ccc(Cc2cnc(N)nc2N)cc1OCC	1.72
O=C(O)C=Cc1ccc2c(c1)OCO2	2.59
O=C(c1ccc(F)cc1)c1ccc2n1CCC2C(=O)O (configuration not stated)	2.82
CC(=O)OC(C(=O)ON=C(C)C12CC3CC(CC(C3)C1)C2)c1ccccc1 (configuration not stated)	5.89
CCCn1c(=O)n(C)c(=O)c2nc[nH]c21	1.02
CCN1CC(C(O)C(CC2CCCCC2)NC(=O)C(Cc2cnc[nH]2)NC(=O)C(CC(=O)N(C)CCOC)Cc2ccccc2)OC1=O (configuration not stated)	2.45
Cc1cccc(C2C(=O)c3ccccc3C2=O)c1	3.46
CSc1cnc2ccccc2n1	2.79
CCCCc1ccc(N2C(N)=NC(N)=NC2(C)C)cc1	2.66
CC1OC(OC2C(O)CC(OC3C(O)CC(OC4CCC5(C)C(CCC6C5CCC5(C)C(C7=CC(=O)OC7)C(O)CC65O)C4)OC3C)OC2C)CC(O)C1O (configuration not stated)	1.67
CC1OC(OC2CCC3(C=O)C4CCC5(C)C(C6=CC(=O)OC6)CCC5(O)C4CCC3(O)C2)C(O)C(O)C1O (configuration not stated)	-0.48
CCOc1cc(Cc2cnc(N)nc2N)ccc1OC	1.2

SMILES	logP
CCN1CC(C(O)C(CC2CCCCC2)NC(=O)C(Cc2cc[nH]n2)NC(=O)C(CC(=O)N2CCOCC2)Cc2ccccc2)OC1=O (configuration not stated)	2.49
CCN(CC)C(C)C(=O)Nc1c(C)cccc1C (configuration not stated)	2.73
Cc1cc(Br)cc(C(=O)NC2CC2)c1O	3.8
CC(C)c1cccc(C(C)C)c1NC1=NCCN1	3.04
CCC(=O)OC(C(=O)NC12CC3CC(CC(C3)C1)C2)c1ccccc1 (configuration not stated)	3.72
CC(=O)Oc1cc(OC(C)CCCc2ccccc2)cc2c1C1CC(O)CCC1C(C)N2C (configuration not stated)	5.72
C#CCC(O)(c1cccnc1)C1CCCCC1 (configuration not stated)	2.09
CC(=O)O[C@]1(C(=O)CO)CC[C@H]2[C@@H]3CCC4=CC(=O)CC[C@]4(C)[C@H]3[C@@H](O)C[C@@]21C	2.3
CSC(C)=NOC(=O)N(C)SN(C)C(C)=O	1.3
CCCCCCCOC1OC(CO)C(O)C(O)C1O (configuration not stated)	0.73
Cc1ccc(S(=O)(=O)NC(=O)NN2CCCCCC2)cc1	2.69
OCc1ccc(C(O)(Cn2ccnc2)c2ccc(-c3ccncc3)cc2)cc1 (configuration not stated)	2.4
C=C(C)C(=O)OCC(C)(O)COc1cccc2ccccc12 (configuration not stated)	3.77
CCOC(=O)C1=C(C)OC(=Cc2ccc(OC)cc2)C1=O	2.96
CNC(=S)NCCSCc1cncn1C	0.32
CC(=O)c1c(O)c(C)c(O)c2c1OC1=CC(=O)C(C(C)=O)C(=O)C12C (configuration not stated)	2.88
CO[C@@]1(NC(=O)CSCC#N)C(=O)N2C(C(=O)O)=C(CSc3nnnn3C)CS[C@@H]21	-0.6
Cc1coc2ccc3ccc(=O)oc3c12	2.38
C=C(C)C(=O)OC1CC2=CC(CC3(C)OC3C3OC(=O)C(=C)C13)OC2=O (configuration not stated)	0.69
Cc1cc(Cl)cc(C)c1NC1=NCCN1	2.5
CCCCCCCCCCCC(=O)CC(=O)Nc1c(OC)cc(OC)cc1OC	5.02
CCC(O)(C(N)=O)c1ccccc1 (configuration not stated)	1.2

SMILES	logP
Cc1cccc(C)c1NC(=O)C(C)N(C)C (configuration not stated)	1.53
Nc1ccn(C2OC(CCl)C(O)C2O)c(=O)n1 (configuration not stated)	-1.05
c1ccc(CC2=NCCN2)cc1	2.65
Nc1nc2c(ncn2COC(CO)CO)c(=O)[nH]1	-1.66
CC(=O)Oc1cccc(OC(C)=O)c1C(N)=O	-0.62
COc1cc(C)c(/C=C/C(C)=C/C=C/C(C)=C/C(=O)O)c(C)c1C	6.4
Cc1cccc(C)c1NC(=O)CCC(C)N (configuration not stated)	1.08
CCN1CC(C(O)C(CC2CCCCC2)NC(=O)C(Cc2cnc[nH]2)NC(=O)C(Cc2ccc(OC)cc2)NC(=O)N(C)CC(O)CO)OC1=O (configuration not stated)	1.42
CCN1CC(C(O)C(CC2CCCCC2)NC(=O)C(Cc2cnc[nH]2)NC(=O)C(Cc2ccc(OC)cc2)NC(=O)N(C)CCOCOCCOC)OC1=O (configuration not stated)	2.03
CCCC(=O)c1ccccc1	2.77
c1ccc(-c2ncc3ccccc3n2)cc1	3.42
CCCc1ccc(CC(=O)O)cc1	3
Cc1ccc(C(=O)c2ccc(CC(=O)O)n2C)cc1	2.79
C=C1C(=O)OC2C1C(OC(=O)C(C)=CC)CC1(CO1)C1C(OC(C)=O)C=C(C)C21O (configuration not stated)	0.76
CCOC1OC(CO)C(O)C(O)C1O (configuration not stated)	-2.28
CCc1ccc(C)cc1	3.63
CCc1ccc(C2C(=O)c3ccccc3C2=O)cc1	3.92
CCCCCCCCc1ccc(C2C(=O)c3ccccc3C2=O)cc1	6.93
CC[C@@H]1C(=O)OC[C@@H]1Cc1cncn1C	0.12
CCCCNC(=O)NS(=O)(=O)c1ccc(N)cc1	1.01
CC(=O)NCC(=O)N[C@H](C(N)=O)C(C)C (Ac-Gly-Val-NH2)	-1.33
Brc1cc2ccccc2nn1	1.72

SMILES	logP
CCC(CC)C(=O)O	1.68
N#Cc1ccc(C[Se]CCC(=O)O)cc1	1.37
CCCN1C(=O)SC(=Cc2ccc([N+](=O)[O-])o2)C1=O	2.4
O=C(NN1CC=CCC1)c1cccs1	1.88
O=C(O)c1cc2ccccc2cc1O	3.05
CC(=O)Nc1ccccc1C(N)=O	0.32
CCN(CC)CC(=O)NCc1ccccc1	2.14
CCN1CC(C(O)C(CC2CCCCC2)NC(=O)C(Cc2cscn2)NC(=O)C(CC(=O)N2CCOCC2)c2ccccc2)OC1=O (configuration not stated)	2.83
COC(=O)c1ccc(CN(C)N=O)cc1	1.21
c1ccc2c(c1)ccc1cc3c(ccc4ccccc43)cc12	6.75
COc1ccc(C(O)(Cn2ccnc2)c2ccc(-c3ccncc3)cc2)cc1 (configuration not stated)	3.55
CCN(CC)CCCCCC(=O)Nc1c(C)cccc1C	2.95
Cn1c([N+](=O)[O-])cnc1/C=C/c1ccnc(N)n1	0.85
COC(=O)/C=C/Oc1ccccc1	2.68
CC1=C(C(=O)Nc2ccccc2-c2ccccc2)SCCO1	2.54
C=C1C(=O)O[C@H]2[C@H]1[C@H](OC(=O)/C(C)=C\C)CC(=C)[C@@H]1[C@H](O)[C@H]3O[C@@]3(C)[C@@]12O	1.69
O=C1NC(=O)c2cc(-c3ccccc3)ccc21	2.97
CC(C)c1nnc(SCC(=O)c2ccccc2)n(N)c1=O	2.07
CCCCCCCCOC(=O)c1cc(=O)[nH]c(=O)[nH]1	2.6
c1ccc(-c2cc3ccccc3cn2)nc1	3.05
CNC(=O)OCc1c2c(n3c1C(OC(C)=O)CC3)C(=O)C=C(N1CCCC1)C2=O (configuration not stated)	1.4
Cc1cc2c(ccc3ccc(=O)oc32)o1	2.55

SMILES	logP
CC(=O)OC1CC2C(CCC3CC(OC4CC(O)C(OC5CC(O)C(OC6CC(O)C(O)C(C)O6)C(C)O5)C(C)O4)CCC32C)C2(O)CCC(C3=CC(=O)OC3)C12C (configuration not stated)	2.29
COC(=O)C=COc1ccccc1Cl	3.02
Clc1ccc(-c2ccccc2)cc1Cl	5.29
O=C1C[N+]([O-])=C(c2ccccc2)c2cc(Cl)ccc2N1	1.49
CCCCn1c(=O)n(C)c(=O)c2[nH]cnc21	1.29
CCOC(=O)c1cnc(-c2ccc(OCC(O)CNCCc3ccc(OC)c(OC)c3)cc2)[nH]1 (configuration not stated)	2.3
OC1(c2ccccc2Cl)CCCCC1n1cncn1 (configuration not stated)	2.68
CC(=O)OCCN1C(=O)C(OC(C)=O)N=C(c2ccccc2)c2cc(Cl)ccc21 (configuration not stated)	2.74
[O-][n+]1ccc(NO)c2ccccc21	0
Cc1ccc(N2Cn3c(nc4ccccc4c3=O)C2C)cc1 (configuration not stated)	2.16
C#CC1(O)C(F)CC2C3CCc4cc(O)ccc4C3C(OC)CC21C (configuration not stated)	2.87
OC(CCN1CCCCC1)(c1ccccc1)C1CC2C=CC1C2 (configuration not stated)	4.25
CC(C)(C)c1cccc(C2C(=O)c3ccccc3C2=O)c1	4.88
CCOc1cccc(NC(=O)CN2CCCCC2)c1	3.17
O=c1[nH]nc(-c2ccccc2)c2ccccc12	2.48
CCN(CC)CCCN(C(=O)Cc1ccccc1)c1c(C)cccc1C	4.94
Oc1ccc2c(c1)CCCC2	2.9
OC(Cn1ccnc1)(c1ccc(F)cc1)c1ccc(-c2ccccn2)cc1 (configuration not stated)	3.58
CC1CCC(c2ccccc2)(N2CCCCC2)CC1 (configuration not stated)	5.66
C=CCOc1ccc(C(=O)c2ccc3n2CCC3C(=O)O)cc1 (configuration not stated)	3.48
CCCCCCCCCCCCCCCCCCCC(=O)O	9.29
C=CC1CCC2OC2C1 (configuration not stated)	2.08
